Measured values as given in patent US20200046703A1, “COMPOSITIONS AND METHODS FOR TREATMENT OF THE SIDE-EFFECTS ASSOCIATED WITH ADMINISTRATION OF THERAPEUTIC AGENTS” (ASYMMETRIC THERAPEUTICS, LLC, priority 2018, published 2020).
Several values for one entry are separate records, joined by “and”; a condition that tells them apart may be missing. Equal entries are not always repeated.

Tests used:
Format in all cases: cell-based, human
[1] = Proliferating HGEP cell viability with/without 5-FU; details: human, proliferating HGEP cells; 10 μM of 5-FU; read-out: viability compared to a control system without 5-FU
Method: (§1) In one set of experiments, the results of which are shown in Table 1, proliferating HGEP cells, commonly used to assess oral mucosal toxicity, were exposed to the clinically-relevant dose of 10 μM of 5-FU and different concentrations of oxypurinol, either alone or with different concentrations of adenine or uracil, using standard tissue culture methods and incubated at 37° C. Oxypurinol concentrations of 0.03 mM, 0.1 mM, and 0.3 mM were tested. Adenine and uracil concentrations of 0.1 mM and 0.3 mM were tested. The relative viability of the cells was determined after 120 hours.

proliferating HGEP cells = experiment: as above; details: 5-FU 10 μM alone; relative to control; 120 hours
Method: as §1

[2] = Proliferating HPEK cell viability with/without 5-FU; details: human, proliferating HPEK cells; 10 μM of 5-FU; read-out: viability compared to a control system without 5-FU
Method: as §1, with “In another” for “In one”, “Table 2,” for “Table 1,”, “proliferating HPEK” for “proliferating HGEP”, “assess skin tissue” for “assess oral mucosal”

proliferating HPEK cells = experiment: as above; details: 5-FU 10 μM alone; relative to control; 120 hours
Method: as §1, with “In another” for “In one”, “Table 2,” for “Table 1,”, “proliferating HPEK” for “proliferating HGEP”, “assess skin tissue” for “assess oral mucosal”

[3] = Confluent HPEK cell viability with/without 5-FU; details: human, confluent HPEK cells; 10 μM of 5-FU; read-out: viability compared to a control system without 5-FU
Method: (§2) Oxypurinol and allopurinol concentrations of 0.3 mM, 1.0 mM, and 3.0 mM, which are ten times higher than those used in the first set of experiments, were tested. An adenine concentration of 0.3 mM, which was the higher concentration used in the first set of experiments, was tested. The relative viability of the cells was determined after 120 hours.

confluent HPEK cells = experiment: Confluent HPEK cell viability with/without 5-FU; details: 5-FU 10 μM alone; relative to control; 120 hours
Method: as §2

[4] = Confluent NHEK cell viability with/without 5-FU; details: human, confluent NHEK cells; 10 μM of 5-FU; read-out: viability compared to a control system without 5-FU
Method: (§3) In yet another set of experiments, the results of which are shown in Table 4, confluent NHEK cells were exposed to the clinically-relevant dose of 10 μM of 5-FU and different concentrations of sodium hydroxide, oxypurinol, or allopurinol using standard tissue culture methods and incubated at 37° C. Sodium hydroxide concentrations of 1 mM, 2 mM, 3 mM, and 4 mM were tested. Oxypurinol and allopurinol concentrations of 0.1 mM, 0.3 mM, 1.0 mM, and 3.0 mM were tested, both in the presence and in the absence of 10 μM of 5-FU. The relative viability of the cells was determined after 120 hours. The sodium hydroxide trials were only performed to serve as a control.

confluent NHEK cells = experiment: Confluent NHEK cell viability with/without 5-FU; details: 5-FU 10 μM alone; relative to control; 120 hours
Method: as §3

Q: Which viability at 120 h, 10 µM [1] does the source give for `O=c1[nH]cc(F)c(=O)[nH]1` [5-FU, 5-fluorouracil, reference compound] here?
A: Its viability at 120 h, 10 µM is 62.2%.

Q: And the “relative cell viability (AVG)” value (proliferating HGEP cells)?
A: Its value is 0.6217.

Q: What about the viability at 120 h, 10 µM [2] of the same compound?
A: The viability at 120 h, 10 µM was 65.1%.

Q: What about the “relative cell viability (AVG)” value (proliferating HPEK cells) of the same compound?
A: Its value is 0.6507.

Q: What about the viability at 120 h, 10 µM [3] of the same compound?
A: Its viability at 120 h, 10 µM is 65.1%.

Q: And the “relative cell viability (AVG)” value (confluent HPEK cells)?
A: The value was 0.64 and 0.6421.

Q: And the viability at 120 h, 10 µM [4]?
A: The viability at 120 h, 10 µM was 41.6%.

Q: What about the “relative cell viability (AVG)” value (confluent NHEK cells) of the same compound?
A: The value was 0.42 and 0.4165.
